Values joined by “and” are separate entries in the source; they are usually repeats but may differ in a detail not shown here. Identical values can stand only once.
Experiments:
[1] = target: T1, modified sfPFK-M enzyme (47 kDa fragment) (Homo sapiens, UniProt P08237); assay: PFK1 enzymatic assay, modified sfPFK-M; format: biochemical
T1 sequence (P08237 2-390 limits assumed): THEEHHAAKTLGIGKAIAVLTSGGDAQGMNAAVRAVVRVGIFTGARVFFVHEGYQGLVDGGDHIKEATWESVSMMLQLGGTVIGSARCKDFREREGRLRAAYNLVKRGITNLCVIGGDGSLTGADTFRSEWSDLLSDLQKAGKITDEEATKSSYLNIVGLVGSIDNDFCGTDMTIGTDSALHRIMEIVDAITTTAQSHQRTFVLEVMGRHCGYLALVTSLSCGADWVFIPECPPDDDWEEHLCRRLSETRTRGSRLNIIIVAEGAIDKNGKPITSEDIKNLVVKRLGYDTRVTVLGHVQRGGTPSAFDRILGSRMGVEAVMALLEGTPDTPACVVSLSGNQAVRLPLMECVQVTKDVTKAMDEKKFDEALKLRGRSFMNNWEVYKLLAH
Procedure: (§1) To evaluate the ability of selected compounds to suppress the activities of the recombinant human native and modified PFK-M and PFK-L enzymes, they were constructed in yeast S. cerevisiae as a host organism (S1 Text), partially purified, and their activities assayed (S2 Text).
(§2) S2 Text: PFK1 Enzymatic assays.
(§3) PFK1 activities were determined spectrophotometrically at 340 nm (Lambda 25 UV/VIS spectrophotometer, Perkin Elmer) as reported previously using a coupled reaction system. Unless otherwise stated, in a final volume of 1 mL, the assay mixture contained 50 mM HEPES buffer (pH 7.8), 1 mM DTE, 100 mM KCl, 5 mM MgCl2, 0.2 mM NADH, 0,025 to 2 mM F6P, 10% v/v polyethylene glycol (PEG 6000), 0.9 U/mL aldolase (Sigma-Aldrich, Steinheim, Germany), 15 U/mL triosephosphate isomerase, and 15 U/mL glycerol-3-phosphate dehydrogenase (Sigma-Aldrich, Steinheim, Germany). Before use, the auxiliary enzymes were dialyzed overnight at 4 °C against 50 mM HEPES buffer (pH 7.8) containing 1 mM DTE, with one buffer […]
(§4) induce inhibition. The enzyme concentration used in the kinetic assay was 0.2 µg/mL. […] Total protein concentrations of the samples were determined using a Bio-Rad protein assay (Bio-Rad, Hercules, Ca) with bovine y-globulin […]

[2] = target: T2, native nPFK-M enzyme (85 kDa) (Homo sapiens, UniProt P08237); assay: PFK1 enzymatic assay, native nPFK-M; format: biochemical
T2 construct: made in house; host or cells: Saccharomyces cerevisiae pfk-null HD-114-8A
T2 sequence (P08237 1-780): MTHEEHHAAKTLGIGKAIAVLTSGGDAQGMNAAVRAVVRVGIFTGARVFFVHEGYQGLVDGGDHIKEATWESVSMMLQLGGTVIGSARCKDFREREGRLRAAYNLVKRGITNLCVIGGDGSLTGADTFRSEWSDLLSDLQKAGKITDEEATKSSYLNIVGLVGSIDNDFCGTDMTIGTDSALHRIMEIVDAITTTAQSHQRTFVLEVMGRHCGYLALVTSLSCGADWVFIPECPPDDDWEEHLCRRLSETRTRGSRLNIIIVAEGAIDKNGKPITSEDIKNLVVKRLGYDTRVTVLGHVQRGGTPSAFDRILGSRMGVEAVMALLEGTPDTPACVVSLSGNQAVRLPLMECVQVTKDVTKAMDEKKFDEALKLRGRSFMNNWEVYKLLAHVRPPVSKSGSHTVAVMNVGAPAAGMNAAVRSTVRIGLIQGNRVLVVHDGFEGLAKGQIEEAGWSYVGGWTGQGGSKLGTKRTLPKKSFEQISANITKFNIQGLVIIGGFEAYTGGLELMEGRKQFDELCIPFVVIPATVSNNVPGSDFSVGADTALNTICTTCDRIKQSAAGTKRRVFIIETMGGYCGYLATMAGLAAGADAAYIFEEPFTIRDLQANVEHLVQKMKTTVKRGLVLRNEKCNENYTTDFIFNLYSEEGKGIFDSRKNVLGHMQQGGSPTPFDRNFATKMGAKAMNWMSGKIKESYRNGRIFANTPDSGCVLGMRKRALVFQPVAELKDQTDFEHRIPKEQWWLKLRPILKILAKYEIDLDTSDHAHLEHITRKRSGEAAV
Procedure: as §1, §2, §3, §4

COLO 829 cells [3] = assay: Dose-dependent inhibition of lactate formation; format: cell-based; conditions: 20, 40, 60, 80 µM, up to 72 hours
COLO 829 cells [4] = assay: Cytostatic assay (XTT cell proliferation); format: cell-based; conditions: up to 80 µM, 72 hours
Procedure: (§5) Untreated cells and cells treated with different concentrations of inhibitors were incubated for 72 hours before alive cellular biomass was determined according to the manufacturer’s instructions.

Caco-2 cells [5] = assay: Cytostatic assay (XTT cell proliferation); format: cell-based; conditions: up to 80 µM, 72 hours
Procedure: as §5

MDA-MB-231 cells [6] = assay: Cytostatic assay (XTT cell proliferation); format: cell-based; conditions: up to 80 µM, 72 hours
Procedure: as §5

COLO 829 cells [7] = format: cell-based; conditions: 72 hours
Procedure: (§6) As a negative control, 100 µL Triton X-100 was added to wells containing 1mL medium with cells. For the survival evaluation in the dose-dependent tests, the measurements were conducted at the end of incubation at 72 hours of growth in the medium.

Caco-2 cells [8] = format: cell-based; conditions: 72 hours
Procedure: as §6

MDA-MB-231 cells [9] = format: cell-based; conditions: 72 hours
Procedure: as §6

[10] = test system: all tumorigenic cell lines tested; assay: ROS/SOX reduction by sequential re-insertion, statement for all lines; format: cell-based; conditions: sequentially re-added every 24 hours
Procedure: After 78 hours cells were washed by centrifugation, and an aliquot of 1 × 10^5 cells was placed into 1 mL of phenol red-free IMDM medium (Thermo Fisher Scientific, Waltham, MA, USA) supplemented with 10% of FBS. The cells were incubated for an additional 3 hours before measurement.
For detecting ROS and SOX levels in the cells, 100 µL of medium was washed with PBS by standard centrifugation protocol and then placed into a well on the 96-well black wall/clear bottom plate. To each well 100 µL ROS detection reagent (Green) and SOX detection reagent (Orange) were added as specified in the Cellular ROS/SOX Detection Assay Kit (ab139476 Abcam, Cambridge, UK). For measuring superoxide Cellular Superoxide Detection Assay Kit (ab139477 Abcam, Cambridge, UK) was used that contains “Orange” but not the “Green” reagent.

Caco-2 cells [11] = assay: Dose-dependent inhibition of lactate formation; format: cell-based; conditions: 20, 40, 60, 80 µM, up to 72 hours
Procedure: (§7) If not specified differently, the tumorigenic cells were plated in the RPMI 1640 GlutaMax medium (Thermo Fisher Scientific, Waltham, MA, USA) supplemented with 10% FBS at the concentration of 5 × 10^5 cells per mL. The cells were incubated at 37 °C and 5% CO2. Different concentrations of specific inhibitors were added to the medium at the beginning of inoculation. An adequate amount of DMSO used in the solution with the specified concentrations of compounds was added to the vehicle.
(§8) For measuring lactate concentrations in the medium, 20 µL samples were taken at specified time intervals, centrifuged at 1200 rpm for 5 minutes at 4 °C and 15 µL supernatants were preserved at 4 °C until analyzed.
(§9) Lactate levels were assessed enzymatically using an L-Lactic acid assay kit (K-LATE, Megazyme, Bray, Ireland) and measured according to the manufacturer’s instructions.
(§10) The lactate formation, growth yield, and survival under normal and inhibitory conditions of four tumorigenic cell lines were investigated. […] Cells were grown in the presence of vehicles or inhibitors at different concentrations (20, 40, 60, and 80 µM), and lactate levels in the supernatant were determined sequentially.

Jurkat cells [12] = assay: Dose-dependent inhibition of lactate formation; format: cell-based; conditions: for Stability of the compounds during incubation, indicated by increasing lactate formation in later phases: Jurkat cell culture medium, after 24 hours up to 72 hours; for Lactate formation in the first 24 hours: Jurkat cells, 20, 40, 60, 80 µM, regardless of concentration, later dose-dependent lactate production up to 72 hours
Procedure: as §7, §8, §9, §10

MDA-MB-231 cells [13] = assay: Dose-dependent inhibition of lactate formation; format: cell-based; conditions: 20, 40, 60, 80 µM, up to 72 hours
Procedure: as §7, §8, §9, §10

Jurkat cells [14] = format: cell-based
Procedure: as §6
The potential cytotoxicity of the inhibitors was also assessed. At the end of the incubation, the average percentage of dead cells was determined in the presence of a vehicle and a 80 µM concentration of each inhibitor.

Jurkat cells [15] = assay: Cytostatic assay (XTT cell proliferation); format: cell-based; conditions: 20-80 µM
Procedure: as §5
To investigate possible cytostatic effects of the inhibitors, the total cell number of Jurkat cells treated with vehicles of different concentrations of inhibitors was determined immediately after incubation.

[16] = target: T3, modified sfPFK-L enzyme (70 kDa fragment) (Homo sapiens, UniProt P17858); assay: PFK1 enzymatic assay, modified sfPFK-L; format: biochemical
T3 construct: 45.920 Da [2] and short PFK-L of 69.942 Da fragments [3], respectively; made in house; host or cells: Saccharomyces cerevisiae pfk-null HD-114-8A
T3 sequence (P17858 2-648): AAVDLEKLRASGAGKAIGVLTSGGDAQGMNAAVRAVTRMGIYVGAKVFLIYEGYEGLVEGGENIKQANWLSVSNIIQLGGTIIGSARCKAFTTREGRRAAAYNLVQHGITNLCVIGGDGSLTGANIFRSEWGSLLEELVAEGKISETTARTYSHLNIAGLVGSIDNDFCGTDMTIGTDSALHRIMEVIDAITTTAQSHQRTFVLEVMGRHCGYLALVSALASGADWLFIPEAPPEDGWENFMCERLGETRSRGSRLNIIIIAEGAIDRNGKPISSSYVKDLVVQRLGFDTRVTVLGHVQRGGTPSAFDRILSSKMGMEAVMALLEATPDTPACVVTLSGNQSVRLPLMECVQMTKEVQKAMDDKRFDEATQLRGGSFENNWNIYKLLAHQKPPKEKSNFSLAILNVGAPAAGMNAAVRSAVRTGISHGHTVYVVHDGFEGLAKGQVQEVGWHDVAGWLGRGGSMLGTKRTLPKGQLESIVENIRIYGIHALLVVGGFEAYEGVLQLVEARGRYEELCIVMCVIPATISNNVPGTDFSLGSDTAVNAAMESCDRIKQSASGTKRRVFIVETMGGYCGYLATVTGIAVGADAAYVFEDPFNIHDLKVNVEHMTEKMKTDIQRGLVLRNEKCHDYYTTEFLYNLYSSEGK
Procedure: as §1, §2, §3, §4

[17] = 10 µM sequentially added every 24 hours

O=C(CSc1nnc(-c2ccc3c(c2)OCO3)o1)Nc1ccon1 [cmpd No. 3, 2-[(5-benzo[1,3]dioxol-5-yl-1,3,4-oxadiazol-2-yl)sulfanyl]-N-isoxazol-3-yl-acetamide]
IC50 [1]: 15 µM and ~15 µM | IC50 [2]: 18 µM

COc1ccc(-c2cccc(-c3ccn(Cc4noc(C)n4)n3)c2)nn1 [cmpd No. 9, 3-methoxy-6-(3-{1-[(5-methyl-1,2,4-oxadiazol-3-yl)methyl]-1H-pyrazol-3-yl}phenyl)pyridazine]
Lactate formation, dose-dependent test (COLO 829 cells [3]): Apparent dose-dependent effects of suppressed lactate formation | Cytostatic effect (total cell number compared to the control) (COLO 829 cells [4]): No significant differences in the total cell number | Cytostatic effect (total number of cells at the end of incubation) (Caco-2 cells [5]): no adverse effects on cell growth | Cytostatic effect (total cell number) (MDA-MB-231 cells [6]): No significant differences in total cell number | Average percentage of dead cells, sequentially treated (COLO 829 cells [7]; [17]): 2.84 ± 0.19% | Average percentage of dead cells (COLO 829 cells [7]; dose-dependent test): 3.65 ± 0.78% | Average percentage of dead cells, sequentially treated (Caco-2 cells [8]; [17]): 4.03 ± 0.32% | Average percentage of dead cells (Caco-2 cells [8]; dose-dependent test, different concentrations of inhibitors): 3.33 ± 0.14% | Average percentage of dead cells, sequentially treated (MDA-MB-231 cells [9]; [17]): 2.35 ± 0.09% | Average percentage of dead cells (MDA-MB-231 cells [9]; dose-dependent test): 6.59 ± 0.29% | Reduction of ROS formation ([10]; 5 µM): approximately 50% | Reduction of ROS formation ([10]; 10 and 20 µM): approximately 65% | Lactate accumulation, dose-dependent test (Caco-2 cells [11]): dose-dependent reduction in lactate accumulation | Stability of the compounds during incubation, indicated by increasing lactate formation in later phases (Jurkat cells [12]): instability | Lactate formation in the first 24 hours (Jurkat cells [12]): no or only small amounts of lactate | Lactate suppression, dose-dependent test (MDA-MB-231 cells [13]): Dose-dependent effects | Average percentage of dead cells (Jurkat cells [14]; 80 µM, end of incubation 72 hours): 3.74 ± 0.3% | Average percentage of dead cells, sequentially treated (Jurkat cells [14]; 10 µ L sequentially added every 24 hours, 72 hours): 3.24 ± 0.25% | Cytostatic effect (cells counted after 72 hours of incubation) (Jurkat cells [15]): no significant cytostatic

Nc1nnc(-c2cc(-c3ccc(O)cc3)on2)o1 [cmpd No. 30, 4-[3-(5-amino-1,3,4-oxadiazol-2-yl)isoxazol-5-yl]phenol]
Lactate accumulation, dose-dependent test (Caco-2 cells [11]): dose-dependent reduction in lactate accumulation | Stability of the compounds during incubation, indicated by increasing lactate formation in later phases (Jurkat cells [12]): instability | Lactate formation in the first 24 hours (Jurkat cells [12]): no or only small amounts of lactate | Lactate suppression, dose-dependent test (MDA-MB-231 cells [13]): Dose-dependent effects | IC50 [16]: 8 µM

Source: PMC12094722, “Small-molecule inhibitors of 6-phosphofructo-1-kinase simultaneously suppress lactate and superoxide generation in cancer cells” (PLOS One, 2025)
